tested on: human primary T-cells, IL-2 stimulated proliferation (JAK-1 and JAK-3 dependent; reported as JAK3 activity); test: Human primary T-cell proliferation stimulated by IL-2 (Example 3); format: cell-based; conditions: Homo sapiens, T-cell, tested under conditions described in Example 3 (IL-2 stimulated human primary T-cell proliferation); read-out: ability to inhibit JAK3 activity, IC50 range (Table V)
Outline: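 Peripheral-blood human T-cells pre-activated via TCR/CD28, IL-2-starved overnight, then cultured 72 h at 37 °C with compound in Yssel's medium containing IL-2 (80 U/mL in cell suspension). Proliferation read as viable-cell ATP by CellTiter-Glo luminescence; reduction versus control taken as JAK pathway inhibition.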

Q: How did the IC50 turn out when `Cc1cnc(Nc2ccc(N3CCC(NC(=O)NCc4ccccc4)C3)nc2)nc1Nc1ccc2oc(=O)[nH]c2c1` (stereo not shown) [II-98, 1-benzyl-3-(1-(5-(5-methyl-4-(2-oxo-2,3-dihydrobenzo[d]oxazol-5-ylamino)pyrimidin-2-ylamino)pyridin-2-yl)pyrrolidin-3-yl)urea] was run?
A: < 500 nM

Q: With `Cc1cnc(Nc2cnc(C3CC4CCC(C3)N4CC3CC3)c(C)c2)nc1Nc1ccc2oc(=O)[nH]c2c1` (stereo not shown) [II-67, 5-(2-(6-(8-(cyclopropylmethyl)-8-aza-bicyclo[3.2.1]octan-3-yl)-5-methylpyridin-3-ylamino)-5-methylpyrimidin-4-ylamino)benzo[d]oxazol-2(3H)-one] as the compound, how does the IC50 read?
A: < 500 nM

Q: Which IC50 does the source give for `Cc1cnc(Nc2cccc(C#N)c2)nc1Nc1ccc2oc(=O)[nH]c2c1` [Compound I-26, N4-(benzo[d]oxazol-2(3H)-on-5-yl)-N2-(3-cyanophenyl)-5-methylpyrimidine-2,4-diamine] here?
A: < 500 nM

Q: `Cc1cnc(Nc2ccc(N3C[C@@H](C)N(C)[C@@H](C)C3)nc2)nc1Nc1ccc2oc(=O)[nH]c2c1` [II-127, 5-methyl-N4-(2-oxo-2,3-dihydro-1,3-benzoxazol-5-yl)-N2-[2-(cis-3,4,5-trimethylpiperazino)pyridin-5-yl]-2,4-pyrimidinediamine] was tested. Which IC50 did it give?
A: < 500 nM

Q: How did the IC50 turn out when `COc1c(F)ccc(Nc2ncc(C)c(Nc3ccc4oc(=O)[nH]c4c3)n2)c1F` [Compound I-200, 5-[2-(2,4-Difluoro-3-methoxy-phenylamino)-5-methyl-pyrimidin-4-ylamino]-3H-benzooxazol-2-one] was run?
A: < 500 nM

Q: How did the IC50 turn out when `Cc1cnc(Nc2ccc(C=O)cc2)nc1Nc1ccc2oc(=O)[nH]c2c1` [Compound I-4, N4-(benzo[d]oxazol-2(3H)-on-5-yl)-N2-(4-formylphenyl)-5-methylpyrimidine-2,4-diamine] was run?
A: < 500 nM

Q: For `Cc1cnc(Nc2ccc(C(F)(F)F)cc2)nc1Nc1ccc2oc(=O)[nH]c2c1` [Compound I-160, 5-[5-Methyl-2-(4-trifluoromethyl-phenylamino)-pyrimidin-4-ylamino]-3H-benzooxazol-2-one], which IC50 is on record?
A: < 500 nM

Q: How did the IC50 turn out when `Cc1cnc(Nc2ccc(F)c(S(C)(=O)=O)c2)nc1Nc1ccc2oc(=O)[nH]c2c1` [Compound I-242, 5-(2-(4-fluoro-3-(methylsulfonyl)phenylamino)-5-methylpyrimidin-4-ylamino)benzo[d]oxazol-2(3H)-one] was run?
A: < 500 nM

same assay, conditions: tested under conditions described in Example 3 (IL-2 stimulated human primary T-cell proliferation); read-out: ability to inhibit JAK3 activity, IC50 range (Table V)

Q: How did the IC50 turn out when `Cc1cnc(Nc2cc(Cl)c(OC(F)F)c(Cl)c2)nc1Nc1ccc2oc(=O)[nH]c2c1` [Compound I-348, N2-(3,5-dichloro-4-difluoromethoxy)phenyl-5-methyl-N4-(2-oxo-2,3-dihydro-1,3-benzoxazol-5-yl)-2,4-pyrimidinediamine] was run?
A: < 500 nM

Q: With `Cc1cnc(Nc2ccc(S(N)(=O)=O)cc2)nc1Nc1ccc2c(c1)n(C)c(=O)n2C` [Compound I-35, N4-(1,3-dimethylbenzimidazolin-2-on-5-yl)-N2-((4-aminosulfonyl)phenyl)-5-methylpyrimidine-2,4-diamine] as the compound, how does the IC50 read?
A: > 10000 nM

Q: With `Cc1cnc(Nc2ccc(F)c(OC(F)F)c2)nc1Nc1ccc2oc(=O)[nH]c2c1` [Compound I-435, N2-(3-difluoromethoxy-4-fluoro)phenyl-5-methyl-N4-(2-oxo-2,3-dihydro-1,3-benzoxazol-5-yl)-2,4-pyrimidinediamine] as the compound, how does the IC50 read?
A: < 500 nM

Q: With `Cc1cnc(Nc2cc(C)c(F)c(C)c2)nc1Nc1ccc2oc(=O)n(COP(=O)(OC(C)(C)C)OC(C)(C)C)c2c1` [Compound I-450, N4-{3-[bis(1,1-dimethylethoxy)]phosphinyloxymethyl-2-oxo-2,3-dihydro-1,3-benzoxazol-5-yl}-N2-(3,5-dimethyl-4-fluoro)phenyl-5-methyl-2,4-pyrimidinediamine] as the compound, how does the IC50 read?
A: > 10000 nM

Q: `Cc1cnc(Nc2cc(C)c(OC(F)F)c(C)c2)nc1Nc1ccc2oc(=O)[nH]c2c1` [Compound I-385, N2-(4-difluoromethoxy-3,5-dimethyl)phenyl-5-methyl-N4-(2-oxo-2,3-dihydro-1,3-benzoxazol-5-yl)-2,4-pyrimidinediamine] was tested. Which IC50 did it give?
A: < 500 nM

Source: US10005767B2, “Compositions and methods for inhibition of the JAK pathway” (Rigel Pharmaceuticals, Inc., priority 2009, dated 2018)
